Reference: patent publication US7217730B2, “Method for the use of pyranoindole derivatives to treat infection with Hepatitis C virus” (Wyeth, priority 2002, dated 2007)
Where two headings read alike, the source gives them in different places.

Molecular target: T1, NS5B from the BK strain (genotype 1b) (Hepatitis C virus genotype 1b, UniProt P26663)
T1 construct: NS5B from the BK strain (genotype 1b) is expressed in E. coli as a protein in which the 21 C-terminal amino acids are replaced; made in house; host or cells: E. coli
Test: Hepatitis C polymerase inhibition, NS5B BK strain, 33P-GTP filter assay
Assay type: biochemical
Details: for inhibition at 20 µM: read-out: HCV pol % inh at 20 μM; for IC50: NS5B BK strain, read-out: HCV pol BK IC50
Outline: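 E. coli-expressed NS5B (BK, genotype 1b) with the 21 C-terminal residues replaced by a linker-His6 tag was preincubated with compound for 15 min at room temperature. It then extended a hairpin-primed heteropolymeric RNA (~3 nM, ~760 nt product) with α-[33P]-GTP for 2 h at 22–25° C. The reaction was stopped with EDTA, and incorporated label was counted on filters.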

T1 sequence (P26663 2420-2989): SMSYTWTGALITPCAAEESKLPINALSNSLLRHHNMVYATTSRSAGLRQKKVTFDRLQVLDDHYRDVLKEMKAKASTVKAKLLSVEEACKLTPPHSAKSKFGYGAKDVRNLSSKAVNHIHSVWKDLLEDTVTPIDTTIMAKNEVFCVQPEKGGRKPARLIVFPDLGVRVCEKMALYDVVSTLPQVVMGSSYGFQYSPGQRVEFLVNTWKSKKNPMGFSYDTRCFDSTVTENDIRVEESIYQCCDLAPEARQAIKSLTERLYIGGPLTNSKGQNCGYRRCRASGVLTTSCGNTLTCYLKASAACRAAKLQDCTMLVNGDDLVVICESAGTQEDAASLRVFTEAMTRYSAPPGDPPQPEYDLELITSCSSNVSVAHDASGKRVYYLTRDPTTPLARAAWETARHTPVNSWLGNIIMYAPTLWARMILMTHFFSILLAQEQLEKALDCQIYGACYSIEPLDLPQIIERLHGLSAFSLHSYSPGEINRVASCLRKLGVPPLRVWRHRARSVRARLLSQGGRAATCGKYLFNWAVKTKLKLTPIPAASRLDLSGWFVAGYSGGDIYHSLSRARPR

| SMILES | inhibition at 20 µM (Table 1A, 20 μM compound) | IC50 (Table 1A) | inhibition at 20 µM |
| --- | --- | --- | --- |
| CC(C)C1(CC(=O)O)OCCc2c1[nH]c1c(Br)cccc21 (stereo not drawn) [Example 83, (8-bromo-1-isopropyl-1,3,4,9-tetrahydropyrano[3,4-b]indol-1-yl)acetic acid] | 41% | > 20 µM | – |
| CCCCC1(CC(=O)O)OCCc2c1[nH]c1c(Br)cccc21 (stereo not drawn) [Example 84, (8-bromo-1-butyl-1,3,4,9-tetrahydropyrano[3,4-b]indol-1-yl)acetic acid] | 46% | 19.7 µM | – |
| C/C=C/CCC1(CC(=O)O)OCCc2c1[nH]c1c(Br)cccc21 (stereo not drawn) [Example 85, {8-bromo-1-[(3E)-pent-3-enyl]-1,3,4,9-tetrahydropyrano[3,4-b]indol-1-yl}acetic acid] | 18% | > 20 µM | – |
| O=C(O)CC1(c2ccccc2)OCCc2c1[nH]c1c(Br)cccc21 (stereo not drawn) [Example 86, (8-bromo-1-phenyl-1,3,4,9-tetrahydropyrano[3,4-b]indol-1-yl)acetic acid] | 20% | > 20 µM | – |
| O=C(O)CC1(c2ccc(C(=O)O)cc2)OCCc2c1[nH]c1c(Br)cccc21 (stereo not drawn) [Example 87, 4-[8-bromo-1-(carboxymethyl)-1,3,4,9-tetrahydropyrano[3,4-b]indol-1-yl]benzoic acid] | 42% | > 20 µM | – |
| O=C(O)CC1(c2ccoc2)OCCc2c1[nH]c1c(Br)cccc21 (stereo not drawn) [Example 88, [8-bromo-1-(3-furyl)-1,3,4,9-tetrahydropyrano[3,4-b]indol-1-yl]acetic acid] | 30% | > 20 µM | – |
| CCCC1(CC(=O)O)OCCc2c1[nH]c1c(-c3ccccc3)cccc21 (stereo not drawn) [Example 89, (8-phenyl-1-propyl-1,3,4,9-tetrahydropyrano[3,4-b]indol-1-yl)acetic acid] | 36% | > 20 µM | – |
| CCCC1(CC(=O)O)OCCc2c1[nH]c1c(-c3ccc(C)cc3)cccc21 (stereo not drawn) [Example 90, [8-(4-methylphenyl)-1-propyl-1,3,4,9-tetrahydropyrano[3,4-b]indol-1-yl]acetic acid] | 2% | > 20 µM | – |
| CCCC1(CC(=O)O)OCCc2c1[nH]c1c(-c3ccc(OC)cc3)cccc21 (stereo not drawn) [Example 91, [8-(4-methoxyphenyl)-1-propyl-1,3,4,9-tetrahydropyrano[3,4-b]indol-1-yl]acetic acid] | < 5% | > 20 µM | – |
| CCCC1(CC(=O)O)OCCc2c1[nH]c1c(-c3ccc(Cl)cc3)cccc21 (stereo not drawn) [Example 92, [8-(4-chlorophenyl)-1-propyl-1,3,4,9-tetrahydropyrano[3,4-b]indol-1-yl]acetic acid] | 35% | > 20 µM | – |
| CCCC1(CC(=O)O)OCCc2c1[nH]c1c(-c3ccc(Cl)cc3Cl)cccc21 (stereo not drawn) [Example 93, [8-(2,4-dichlorophenyl)-1-propyl-1,3,4,9-tetrahydropyrano[3,4-b]indol-1-yl]acetic acid] | 64% | > 20 µM | – |
| CCCC1(CC(=O)O)OCCc2c1[nH]c1c(-c3ccc(C(F)(F)F)cc3)cccc21 (stereo not drawn) [Example 94, {1-propyl-8-[4-(trifluoromethyl)phenyl]-1,3,4,9-tetrahydropyrano[3,4-b]indol-1-yl}acetic acid] | 33% | > 20 µM | – |
| CCCC1(CC(=O)O)OCCc2c1[nH]c1c(-c3cccc(Br)c3)cccc21 (stereo not drawn) [Example 96, [8-(3-bromophenyl)-1-propyl-1,3,4,9-tetrahydropyrano[3,4-b]indol-1-yl]acetic acid] | 37% | > 20 µM | – |
| CCCC1(CC(=O)O)OCCc2c1[nH]c1c(-c3cccc(N)c3)cccc21 (stereo not drawn) [Example 97, [8-(3-aminophenyl)-1-propyl-1,3,4,9-tetrahydropyrano[3,4-b]indol-1-yl]acetic acid] | 21% | > 20 µM | – |
| CCCC1(CC(=O)O)OCCc2c1[nH]c1c(C#N)cccc21 (stereo not drawn) [Example 98, (8-cyano-1-propyl-1,3,4,9-tetrahydropyrano[3,4-b]indol-1-yl)acetic acid] | 44% | > 20 µM | – |
| CC1(CC(=O)O)OCCc2c1[nH]c1c(Cl)cc(Cl)cc21 (stereo not drawn) [Example 99, (6,8-dichloro-1-methyl-1,3,4,9-tetrahydropyrano[3,4-b]indol-1-yl)acetic acid] | 32% | > 20 µM | – |
| CCC1(CC(=O)O)OCCc2c1[nH]c1c(Cl)cc(Cl)cc21 (stereo not drawn) [Example 100, (6,8-dichloro-1-ethyl-1,3,4,9-tetrahydropyrano[3,4-b]indol-1-yl)acetic acid] | 54% | > 20 µM | – |
| CCCC1(CC(=O)O)OCCc2c1[nH]c1c(Cl)cc(Cl)cc21 (stereo not drawn) [Example 101, (6,8-dichloro-1-propyl-1,3,4,9-tetrahydropyrano[3,4-b]indol-1-yl)acetic acid] | 89% | 1.5 µM | – |

| SMILES | inhibition at 20 µM (Table 1A, 20 μM compound) | IC50 (Table 1A) | inhibition at 20 µM |
| --- | --- | --- | --- |
| CC(C)C1(CC(=O)O)OCCc2c1[nH]c1c(Cl)cc(Cl)cc21 (stereo not drawn) [Example 102, (6,8-dichloro-1-isopropyl-1,3,4,9-tetrahydropyrano[3,4-b]indol-1-yl)acetic acid] | 51% | 21.7 µM | – |
| CCCCC1(CC(=O)O)OCCc2c1[nH]c1c(Cl)cc(Cl)cc21 (stereo not drawn) [Example 103, (1-butyl-6,8-dichloro-1,3,4,9-tetrahydropyrano[3,4-b]indol-1-yl)acetic acid] | 60% | 14.4 µM | – |
| C/C=C/CCC1(CC(=O)O)OCCc2c1[nH]c1c(Cl)cc(Cl)cc21 (stereo not drawn) [Example 104, {6,8-dichloro-1-[(3E)-pent-3-enyl]-1,3,4,9-tetrahydropyrano[3,4-b]indol-1-yl}acetic acid] | < 5% | > 20 µM | – |
| O=C(O)CC1(c2ccccc2)OCCc2c1[nH]c1c(Cl)cc(Cl)cc21 (stereo not drawn) [Example 105, (6,8-dichloro-1-phenyl-1,3,4,9-tetrahydropyrano[3,4-b]indol-1-yl)acetic acid] | 57% | > 5 µM | – |
| O=C(O)CC1(c2ccc(C(=O)O)cc2)OCCc2c1[nH]c1c(Cl)cc(Cl)cc21 (stereo not drawn) [Example 106, 4-[1-(carboxymethyl)-6,8-dichloro-1,3,4,9-tetrahydropyrano[3,4-b]indol-1-yl]benzoic acid] | 71% | 2.3 µM | – |
| CC1(CC(=O)O)OCCc2c1[nH]c1ccc(Cl)c(Cl)c21 (stereo not drawn) [Example 107, (5,6-dichloro-1-methyl-1,3,4,9-tetrahydropyrano[3,4-b]indol-1-yl)acetic acid] | 50% | 19.1 µM | – |
| O=C(O)CC1(c2ccc(C(=O)O)cc2)OCCc2c1[nH]c1ccc(Cl)c(Cl)c21 (stereo not drawn) [Example 113, 4-[1-(carboxymethyl)-5,6-dichloro-1,3,4,9-tetrahydropyrano[3,4-b]indol-1-yl]benzoic acid] | – | 0.26 µM | 35% |
| CC1(CC(=O)O)OCCc2c1[nH]c1cc(Cl)cc(Cl)c21 (stereo not drawn) [Example 114, (5,7-dichloro-1-methyl-1,3,4,9-tetrahydropyrano[3,4-b]indol-1-yl)acetic acid] | 57% | > 20 µM | – |
| CC1(CC(=O)O)OCCc2c1[nH]c1c(C(F)(F)F)cccc21 (stereo not drawn) [Example 115, [1-methyl-8-(trifluoromethyl)-1,3,4,9-tetrahydropyrano[3,4-b]indol-1-yl]acetic acid] | 40% | > 20 µM | – |
| CCC1(CC(=O)O)OCCc2c1[nH]c1c(C(F)(F)F)cccc21 (stereo not drawn) [Example 116, [1-ethyl-8-(trifluoromethyl)-1,3,4,9-tetrahydropyrano[3,4-b]indol-1-yl]acetic acid] | 34% | > 20 µM | – |
| CCCC1(CC(=O)O)OCCc2c1[nH]c1c(C(F)(F)F)cccc21 (stereo not drawn) [Example 117, [1-propyl-8-(trifluoromethyl)-1,3,4,9-tetrahydropyrano[3,4-b]indol-1-yl]acetic acid] | 39% | 9.6 µM | – |
| CC(C)C1(CC(=O)O)OCCc2c1[nH]c1c(C(F)(F)F)cccc21 (stereo not drawn) [Example 118, [1-isopropyl-8-(trifluoromethyl)-1,3,4,9-tetrahydropyrano[3,4-b]indol-1-yl]acetic acid] | 10% | > 20 µM | – |
| CCCCC1(CC(=O)O)OCCc2c1[nH]c1c(C(F)(F)F)cccc21 (stereo not drawn) [Example 119, [1-butyl-8-(trifluoromethyl)-1,3,4,9-tetrahydropyrano[3,4-b]indol-1-yl]acetic acid] | 31% | > 20 µM | – |
| C/C=C/CCC1(CC(=O)O)OCCc2c1[nH]c1c(C(F)(F)F)cccc21 (stereo not drawn) [Example 120, [1-[(3E)-pent-3-enyl]-8-(trifluoromethyl)-1,3,4,9-tetrahydropyrano[3,4-b]indol-1-yl]acetic acid] | 33% | > 20 µM | – |
| O=C(O)CC1(c2ccccc2)OCCc2c1[nH]c1c(C(F)(F)F)cccc21 (stereo not drawn) [Example 121, [1-phenyl-8-(trifluoromethyl)-1,3,4,9-tetrahydropyrano[3,4-b]indol-1-yl]acetic acid] | < 5% | > 20 µM | – |
| CC1(CC(=O)O)OCCc2c1[nH]c1c(F)ccc(F)c21 (stereo not drawn) [Example 122, (5,8-difluoro-1-methyl-1,3,4,9-tetrahydropyrano[3,4-b]indol-1-yl)acetic acid] | 5% | > 20 µM | – |
| CCC1(CC(=O)O)OCCc2c1[nH]c1c(F)ccc(F)c21 (stereo not drawn) [Example 123, (1-ethyl-5,8-difluoro-1,3,4,9-tetrahydro-pyrano[3,4-b]indol-1-yl)acetic acid] | 51% | > 20 µM | – |
| CCCC1(CC(=O)O)OCCc2c1[nH]c1c(F)ccc(F)c21 (stereo not drawn) [Example 124, (5,8-difluoro-1-propyl-1,3,4,9-tetrahydro-pyrano[3,4-b]indol-1-yl)acetic acid] | 61% | 6.7 µM | – |
